“Also recorded” adds a separate entry of the source. Where two headings read alike, the source gives them in different places.
Tests used:
IP receptor = target: T1, IP receptor (Homo sapiens, UniProt P43119); test: In-vitro agonist activity on IP receptor, FLIPR calcium test in IP/HEK293 cells; format: cell-based; conditions: 10 concentrations, 10-fold dilutions
T1 construct: host or cells: HEK293 (IP/HEK293 cell line)
Description: The specific method is as follows: The IP/HEK293 cell line was provided by WuXi AppTec (Shanghai) Co., Ltd. Well-grown IP/HEK293 cells were taken out from the incubator, the culture solution was aspirated, the cells were washed with D-PBS and digested with trypsin EDTA, and then added with a cell culture solution, and the cells were fully suspended by repeated pipetting. The cells were centrifuged at room temperature, the supernatant was aspirated, a culture medium was added, and the cells were resuspended by repeated pipetting with a sterile pipette. After counting living cells with Vi-CELL™, 20 µL (20,000 cells/well) of cell suspension was added to a 384-well cell culture plate and incubated in a 5% CO2 incubator at 37°C overnight. 1 mL of FLIPR test buffer was added with 77 mg of probenecid to prepare 250 mM probenecid solution. After thawing a bottle of 2XFluo-4 DirectTM (F10471), the bottle was added with 10 mL of FLIPR test buffer containing 500 uM AEBSF, and each 10 mL of Fluo-Direct was added with 0.2 mL of probenecid, with a final concentration of 2.5 mM. The mixture was vortexed and then allowed to stand in the dark for more than 5 minutes. Each compound was placed in a water bath at 25°C for 30 minutes. Then, these compounds were sequentially diluted 10-fold with Bravo, with a total of 10 concentrations, for testing. 750 nL of each compound was transferred to a 384-well compound plate with ECHO. Then, the compound plate was added with 30 µL of detection buffer. The 384-well cell culture plate was taken out from the incubator, the culture medium was discarded, and 20 µL of test buffer and 20 µL of 2X Fluo-4 DirectTM No-Wash loading buffer were added with a pipette. The cell culture plate was incubated in a 5% CO2 incubator at 37°C for 50 minutes and incubated at room temperature for 10 minutes. The cell culture plate, the compound plate and a tip box were placed into FLIPR, FLIPRTETRA test program was operated, 10 µL of reference compound and 10 µL of test compound were aspirated from the compound plate to the cell culture plate, fluorescence signals were read, and then data were processed. The data were analyzed by using Prism.

SD rats [1] = test: U46619-induced rat acute pulmonary arterial pressure rise model, airway nebulized administration (RVSP); format: in vivo; conditions: for antihypertensive effect and duration, overall: 1 to 48 hours after airway nebulized administration; for antihypertensive effect: equimolar to 13.3 µg/kg TRE
Text: U46619 was a stable analogue of thromboxane A2 (TXA2), which activated the downstream IP3 signal by binding to the thromboxane A2 receptor to promote vasoconstriction, platelet aggregation and the like. Influences of compound C16-TR and equimolar compounds Ia-1, Ia-2, Ia-3, R-11 and R-12 at different time points after airway nebulized administration on pulmonary hypertension of rats were studied by using the U46619-induced rat pulmonary arterial pressure rise mode, which were compared with that of equimolar TRE after airway nebulized administration.
Preparation of test sample: a required amount of compound TRE was taken and added into a sterile EP tube, and each tube was added with an appropriate amount of DMSO for dissolution to prepare a stock solution (100 mg/mL). Compounds C16-TR, la-1, la-2, Ia-3, R-11 and R-12 were added with appropriate amounts of DMSO and dissolved in the original bottles to prepare stock solutions (100 mg/mL), and then the stock solutions were transferred to sterile EP tubes. Each above stock solution was hermetically stored in the dark in a refrigerator at 4°C. When the stock solution was tested, an appropriate amount of stock solution was taken and added into a new sterile EP tube, and diluted with DMSO and 1×PBS to a target concentration (working solution) wherein the solvent was 3% DMSO/1×PBS.
Preparation of modeling agent: 900 µL of methyl acetate was added into an original bottle of U46619 and mixed evenly to prepare 1 mg/mL(1 µg/µL) stock solution, which was divided into 10 µL (1 µg/µL) per sterile EP tube and stored in a refrigerator at -20°C. On the day of modeling, the stock solution was taken out and balanced at room temperature and constant temperature, and each tube was added with an appropriate amount of 0.9% sodium chloride solution (sterile) to be diluted 20-fold, so as to prepare a working solution with a concentration of 50 ng/µL.
Airway nebulized administration dosages of compound TRE and the test compounds were equimolar quantities calculated based on TRE. The dosage of compound TRE group (n=3) was 13.3 µg/kg, the dosage of compound C16-TR group (n=5) was 20.9 µg/kg, the dosage of compound Ia-1 group (n=3) was 21.2 µg/kg, the dosage of compound Ia-2 group (n=6) was 22.1 µg/kg, the dosage of compound Ia-3 group (n=6) was 23.1 µg/kg, the dosage of compound R-11 group (n=3) was 21.9 µg/kg, and the dosage of compound R-12 group (n=3) was 21.7 µg/kg. There were also a model control group (n=1) and a solvent control group (n=3).
The SD rats were injected with U46619 (25 µg /kg) through the left jugular vein at different time points after airway nebulized administration, the peak value of RVSP rise after injection with U46619 was observed and recorded, and the inhibition percentage on the RVSP rise was calculated by comparing with the basic RVSP value. The rats in the model control group were administered with U46619 by intravenous injection immediately after successful catheterization and measurement of the basic RVSP. RVSP of all animals were detected by right cardiac catheterization, and respiratory conditions of the animals were observed generally. Table-2 Time points of administrating U46619 in various groups

SD rats [2] = test: U46619-induced rat acute pulmonary arterial pressure rise model, low-dose airway nebulized administration (RVSP); format: in vivo; conditions: for Inhibition percentage on RVSP rise (%) (mean): 1 hour after low-dose airway nebulized administration (about 3 µg/kg, equimolar)
Text: In this experiment, airway nebulized administration dosages of the compounds were about 1/7 of airway nebulized administration dosages in Experimental Example 5. By using a U46619-induced rat acute pulmonary arterial pressure rise model, antihypertensive effects of the compounds of the present invention after airway nebulized administration were further verified by reducing the administration dosages.
A model construction method was the same as that described in Experimental Example 5. In this experiment, dosages of groups were as follows: the dosage of compound C16-TR group was 3 µg/kg, and the dosages of equimolar compounds Ia-1, Ia-2 and Ia-3 were 3.0 µg/kg, 3.2 µg/kg and 3.3 µg/kg respectively.
The SD rats were anesthetized and then administered by airway nebulization, and then the basic right ventricular systolic pressure (RVSP) was measured by right cardiac catheterization. The SD rats were intravenously injected with U46619 (25 µg /kg) at 1 hour after airway nebulized administration of each compound, a peak value of RVSP rise after injection with U46619 was observed and recorded, and the inhibition percentage on the RVSP rise was calculated by comparing with the basic RVSP value. The number of experimental animals in each group was 1~2.

EP2 receptor = target: T2, EP2 receptor (Homo sapiens, UniProt P43116); test: Competitive binding to EP2 receptor against radiolabeled ligand 3H-PGE2; conditions: 8 concentrations from 10 µM, 10-fold dilutions
T2 construct: purchased Merck HTS185M
Description: This experiment was carried out in 96-well plates to evaluate the binding affinity of the compounds of the present invention (Ia-1, Ia-2 and Ia-3) to the prostaglandin EP2 receptor by testing their ability of competitive binding to the EP2 receptor with the radiolabeled ligand ^3H-PGE2. Treprostinil was used as control. MicroBeta2 was used to detect the number of ^3H captured, and Prism software was used to analyze data. The EP2 film (Merck, Cat# HT[…], batch number 2121326) was diluted with a buffer (50 mM Hepes, PH=7.4, 5 mM MgCl2, 1 mM CaCl2, 0.5% BSA) to a final concentration of 75 μg/mL. ^3H-PGE2 was diluted to 15 nM. Test compound and control compound solutions with an initial concentration of 10 μM were prepared, and subjected to 10-fold continuous gradient dilution, with a total of 8 concentrations for testing. 5%DMSO was used as a solvent control group. 1 μL of each compound solution was added into a corresponding position in the 96-well test plate, and each well was added with 50 μL of the EP2 film (about 3.75 μg/well), and added with 50 μ L of ^3H-PGE2. Then, the well plate was sealed, and incubated with shaking at 300 rpm at room temperature for 2 hours. After finishing the incubation, GF/C plates were filtered with Perkin Elmer Filtermate Harvester, and then each plate was washed with cold eluent for 4 times, and dried at 50°C for 1 hour. After drying, bottoms of wells of the filter plate were sealed with a PerkinElmer Unifilter-96 backing tape. 50 μL of Perkin Elmer Microscint O was added. The top of the filter plate was sealed with Perkin Elmer TopSeal-A sealing film. The number of ^3H captured was detected by MicroBeta2.

[3] = cited from earlier work
porcine esterase = test: Hydrolysis conversion rate of compounds into TRE mediated by porcine esterase; conditions: experiment (c); 0.2 mg/mL, 20 U porcine esterase, 38°C; 5 minutes to 2 hours
Description: This experiment was designed to evaluate the conversion rates of various compounds with different ester side chain structures into the TRE under the action of esterase.
The carbon number of the ester side chain of each compound was 10, wherein the alkyl side chains of R-05, R-06 and R-08 contained 1~3 oxygen atoms respectively. Each compound was dissolved in 20 mL of ethanol to prepare a 1 mg/ml test compound solution for later use. Then, 1 mL of the test compound solution was transferred into 4 mL of PBS aqueous solution to obtain 0.2 mg/mL test compound reaction solution. The reaction solution was added with 20 U (80 µL) of porcine esterase, shaken evenly and then incubated at 38°C. After a period of reaction, samples were taken according to the following time points: 10 minutes, 30 minutes, 1 hour and 2 hours. The conversion of the test compound into TRE was detected. The hydrolysis of each sample was calculated according to measured peak areas of the reactant and the product: [formula]
Sampling time points were: 20 minutes, 40 minutes, 1 hour and 2 hours.
Sampling time points were: 5 minutes, 15 minutes, 30 minutes, 1 hour and 2 hours.

subjects = conditions: cited from earlier work
[4] = inhaled treprostinil; cited from earlier work
[5] = 16 hours after airway nebulized administration

T2 sequence (P43116 whole entry): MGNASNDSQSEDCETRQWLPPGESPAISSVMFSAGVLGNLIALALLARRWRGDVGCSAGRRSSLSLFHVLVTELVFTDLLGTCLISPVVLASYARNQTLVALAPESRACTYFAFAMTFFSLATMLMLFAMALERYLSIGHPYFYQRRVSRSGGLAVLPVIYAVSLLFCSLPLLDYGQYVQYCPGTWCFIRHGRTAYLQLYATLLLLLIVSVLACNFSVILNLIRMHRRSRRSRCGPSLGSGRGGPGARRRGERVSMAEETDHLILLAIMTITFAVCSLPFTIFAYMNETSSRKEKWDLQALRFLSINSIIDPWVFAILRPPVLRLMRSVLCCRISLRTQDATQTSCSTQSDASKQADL
T1 sequence (P43119 whole entry): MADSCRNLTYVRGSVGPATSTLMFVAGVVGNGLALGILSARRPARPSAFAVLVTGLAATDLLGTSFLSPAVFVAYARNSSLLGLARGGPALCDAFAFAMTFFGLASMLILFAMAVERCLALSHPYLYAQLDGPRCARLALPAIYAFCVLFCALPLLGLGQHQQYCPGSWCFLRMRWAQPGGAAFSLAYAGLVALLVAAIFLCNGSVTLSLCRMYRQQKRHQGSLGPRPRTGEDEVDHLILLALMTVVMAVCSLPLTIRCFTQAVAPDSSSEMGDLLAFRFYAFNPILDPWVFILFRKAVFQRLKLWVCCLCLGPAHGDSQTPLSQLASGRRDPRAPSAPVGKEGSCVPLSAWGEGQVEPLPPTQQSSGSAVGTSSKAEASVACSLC

agonist activity on IP receptor (IP receptor) | binding to the EP2 receptor (competition with 3H-PGE2) (EP2 receptor) | SMILES | antihypertensive effect and duration, overall (SD rats [1]; equimolar doses) | antihypertensive effect (SD rats [1]; 24 hours after airway nebulized administration) | Inhibition percentage on RVSP rise (%) (mean) (SD rats [2]) | physical stability in solution on long-term storage ([3]; HFA propellant with ethanol and DSPE-PEG2000, storage >1 week) | solubility in HFA propellant ([3]; content of ethanol lower than 13%) | reaction of dissolved compound with the alcohol solvent ([3]; dissolved state, ethanol) | antihypertensive effect (SD rats [1]; [5]) | antihypertensive effect (SD rats [2]; 1 hour after low-dose airway nebulized administration) | hydrolysis conversion rates (release of TRE) (porcine esterase) | side effects (subjects; 170 µg/kg and 340 µg/kg) | side effects (subjects; low dose (54 µg/kg)) | inhibition percentage on the RVSP rise (SD rats [1]; 13.3 µg/kg, 16 minutes after airway nebulized administration) | half-life [4] | antihypertensive effects compared with C16-TR (SD rats [1]; 1 hour and 6 hours after airway nebulized administration, equimolar doses)
no agonist activity | no detectable binding | CCCCC[C@H](O)CC[C@@H]1[C@H]2Cc3cccc(OCC(=O)OCCCCCCCCCCOCCCCc4ccccc4)c3C[C@H]2C[C@H]1O [Compound Ia-3] | stronger antihypertensive effects than C16-TR and longer durations | obvious antihypertensive effects | 83.49 |  |  |  |  |  |  |  |  |  |  | 
 |  | CCCCCCCCCCCCCCCCOC(=O)COc1cccc2c1C[C@H]1C[C@@H](O)[C@H](CC[C@@H](O)CCCCC)[C@H]1C2 [Compound C16-TR, treprostinil palmitate] | long-term antihypertensive effects |  | 5.49 | could not remain soluble | could not be dissolved | generates ester exchange impurities with the alcohol solvent; also recorded: can react with ethanol, leading to substitution of the C16 ester by an ethyl ester | no antihypertensive effect | no antihypertensive effect | significantly prolong the hydrolysis conversion rates and release TRE slowly and steadily | developed cough and sore throat | no side effects such as cough or sore throat |  |  | 
no agonist activity | no detectable binding | CCCCC[C@H](O)CC[C@@H]1[C@H]2Cc3cccc(OCC(=O)OCCCCCCOCCCCc4ccccc4)c3C[C@H]2C[C@H]1O [Compound Ia-1] |  |  | 67.67 |  |  |  | no antihypertensive effect |  |  |  |  |  |  | better than those of C16-TR

SMILES | agonist activity on IP receptor (IP receptor) | binding to the EP2 receptor (competition with 3H-PGE2) (EP2 receptor) | antihypertensive effect and duration, overall (SD rats [1]; equimolar doses) | antihypertensive effect (SD rats [1]; 24 hours after airway nebulized administration) | Inhibition percentage on RVSP rise (%) (mean) (SD rats [2]) | physical stability in solution on long-term storage ([3]; HFA propellant with ethanol and DSPE-PEG2000, storage >1 week) | solubility in HFA propellant ([3]; content of ethanol lower than 13%) | reaction of dissolved compound with the alcohol solvent ([3]; dissolved state, ethanol) | antihypertensive effect (SD rats [1]; [5]) | antihypertensive effect (SD rats [2]; 1 hour after low-dose airway nebulized administration) | hydrolysis conversion rates (release of TRE) (porcine esterase) | side effects (subjects; 170 µg/kg and 340 µg/kg) | side effects (subjects; low dose (54 µg/kg)) | inhibition percentage on the RVSP rise (SD rats [1]; 13.3 µg/kg, 16 minutes after airway nebulized administration) | half-life [4] | antihypertensive effects compared with C16-TR (SD rats [1]; 1 hour and 6 hours after airway nebulized administration, equimolar doses)
CCCCC[C@H](O)CC[C@@H]1[C@H]2Cc3cccc(OCC(=O)O)c3C[C@H]2C[C@H]1O [TRE, treprostinil] | strong agonist activity | competitively inhibited the binding of the ligand ^3H-PGE2 to the EP2 receptor in a concentration-dependent manner |  |  |  |  |  |  |  |  |  |  |  | about 39% | about 30 minutes | 

— patent EP4741374A1, “TREPROSTINIL DERIVATIVE, AND PREPARATION METHOD THEREFOR AND USE THEREOF” (CF PharmTech HongKong Limited, priority 2023, dated 2025)
